Measurements taken from ChEMBL document CHEMBL1201862, “PubChem BioAssay data set” (2004).
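Where inhibition never reached the appropriate level, the endpoint shown equals the highest concentration tested. Otherwise, values were interpolated linearly from a five-concentration, 48-hour dose response in 96-well plates. GI50 marks 50% less growth.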 Calls of active or inactive are those of the source. Cut-off read from the data, not from the text of the source: active = GI50 up to about 1.1 µM and inactive = higher.

Columns and labels:
Assay in all cases: growth of human tumour cells (NCI), 48 h
DLD-1 = system: DLD-1
DMS-114 = system: DMS-114
HOP-18 = system: HOP-18
KM-20L2 = system: KM-20L2
LXFL 529 = system: LXFL 529
DMS-273 = system: DMS-273
RXF 631 = system: RXF 631
SNB-78 = system: SNB-78
XF498 = system: XF498

Row | Compound | GI50 (DLD-1) | GI50 (DMS-114) | GI50 (HOP-18) | GI50 (KM-20L2) | GI50 (LXFL 529) | GI50 (DMS-273) | GI50 (RXF 631) | GI50 (SNB-78) | GI50 (XF498)
1 | O=c1oc2c3ccc4ccccc4c3n(CCN3CCOCC3)c2c2ccccc12 | > 100 µM (inactive) | > 100 µM (inactive) | > 100 µM (inactive) | > 100 µM (inactive) | > 100 µM (inactive) |  |  |  | 
2 | CCCCCCCCCCCCC(Br)C(=O)NCC(N)=O (stereo unspecified) | 12.9 µM (inactive) | 3.61 µM (inactive) | 14.3 µM (inactive) | 20.4 µM (inactive) | 9.91 µM (inactive) | 11.7 µM (inactive) | 3.63 µM (inactive) | 12.4 µM (inactive) | 1.37 µM (inactive)
3 | COC12OCCN(CCO)C1=CC(=O)C1(C)N=NC(C)C12 (stereo unspecified) | > 100 µM (inactive) | > 100 µM (inactive) | > 100 µM (inactive) |  | > 100 µM (inactive) | > 100 µM (inactive) | > 100 µM (inactive) | > 100 µM (inactive) | 
4 | COc1ccc(/N=N/c2c(-c3ccccc3)nn(C(=O)CC(=O)Nc3ccccc3Cl)c2-c2ccccc2)cc1 | > 100 µM (inactive) | 25.9 µM (inactive) | > 100 µM (inactive) | > 100 µM (inactive) | > 100 µM (inactive) | > 100 µM (inactive) | > 100 µM (inactive) | > 100 µM (inactive) | 
5 | COc1cc([C@@H]2c3cc4c(cc3[C@@H](NC(=O)c3ccc(N)cc3)C3COC(=O)[C@@H]32)OCO4)cc(OC)c1O (stereo partly specified) | 3.47 µM (inactive) | 2 µM (inactive) | > 100 µM (inactive) | 1.73 µM (inactive) | 13.9 µM (inactive) | 0.37 µM (active) |  |  | 
6 | CCOC(=N)CC(=O)c1ccccc1 | > 100 µM (inactive) | > 100 µM (inactive) | > 100 µM (inactive) | > 100 µM (inactive) | > 100 µM (inactive) | > 100 µM (inactive) |  | > 100 µM (inactive) | > 100 µM (inactive)
7 | C=C1C(=O)OC2/C=C(\CO)C(OC(C)=O)CC(O)/C(C)=C/C(OC(=O)C(C)CC)C12 (stereo unspecified) | 12.9 µM (inactive) | 23.6 µM (inactive) | 23.8 µM (inactive) | 22.4 µM (inactive) | 13.9 µM (inactive) | 19.1 µM (inactive) | 33.5 µM (inactive) | 16.3 µM (inactive) | 15.8 µM (inactive)
8 | C=C(CS(=O)(=O)c1ccccc1)[P+](c1ccccc1)(c1ccccc1)c1ccccc1 | 21.4 µM (inactive) | 21.6 µM (inactive) |  | 17.5 µM (inactive) |  | 16.4 µM (inactive) |  | 38 µM (inactive) | 15 µM (inactive)
9 | Cc1nc2ccccc2c(=O)n1NC(=S)Nc1ccccc1 | > 100 µM (inactive) | 71.1 µM (inactive) | > 100 µM (inactive) |  | > 100 µM (inactive) | > 100 µM (inactive) |  |  | 
10 | O=C(NC(=O)c1ccccc1[N+](=O)[O-])Nc1ccc(Oc2ncc(Cl)cn2)c(C(F)(F)F)c1 | < 0.0132 µM (active) | < 0.01 µM (active) | 53.1 µM (inactive) | < 0.0125 µM (active) | < 0.01 µM (active) | < 0.01 µM (active) |  | < 0.01 µM (active) | 0.0103 µM (active)
11 | COC(=O)C(=O)OC1(C(C)=O)CC2(c3ccccc3)OC1(c1ccccc1)c1ccccc12 (stereo unspecified) | 18.6 µM (inactive) | 15.1 µM (inactive) | 52.8 µM (inactive) | 15.6 µM (inactive) | 19.8 µM (inactive) | 15.2 µM (inactive) | 23.1 µM (inactive) | 27.8 µM (inactive) | 16.4 µM (inactive)
12 | COC(=O)C(C(=O)C(=O)NC1=C(Cl)C(=O)c2ccccc2C1=O)c1csc(-n2nc(-c3ccccc3)cc2-c2ccccc2)n1 (stereo unspecified) | > 100 µM (inactive) | 10.2 µM (inactive) | 13.1 µM (inactive) | > 100 µM (inactive) | > 100 µM (inactive) | > 100 µM (inactive) | > 100 µM (inactive) | > 100 µM (inactive) | > 100 µM (inactive)
13 | Cc1nc2sccn2c1C(=O)NNC(N)=S | > 100 µM (inactive) | > 100 µM (inactive) | > 100 µM (inactive) | > 100 µM (inactive) | > 100 µM (inactive) | > 100 µM (inactive) |  |  | 
14 | OC/C=C(\I)CCCOCOCc1ccccc1 | > 100 µM (inactive) | 22.8 µM (inactive) |  | 29.5 µM (inactive) | 48.9 µM (inactive) | 21.8 µM (inactive) |  | 25.6 µM (inactive) | 14 µM (inactive)
15 | COC1OC(COCc2ccc(Cl)cc2)C(OCc2ccc(Cl)cc2)C1O (stereo unspecified) | 16.2 µM (inactive) | 13.7 µM (inactive) | 12.8 µM (inactive) | 17.3 µM (inactive) | 18.4 µM (inactive) | 17.3 µM (inactive) | 16.2 µM (inactive) |  | 3.07 µM (inactive)
16 | COc1ccc2nc(NC(=O)C(=O)CC(=O)c3ccc(Cl)cc3)sc2c1 | > 100 µM (inactive) | > 100 µM (inactive) | 78.2 µM (inactive) | 71.3 µM (inactive) | > 100 µM (inactive) | > 100 µM (inactive) |  | > 100 µM (inactive) | 46.9 µM (inactive)
17 | N#Cc1ccc(Oc2ccccc2)cc1C#N | 65.2 µM (inactive) | 23.7 µM (inactive) | > 100 µM (inactive) | > 100 µM (inactive) | 42.6 µM (inactive) | 17.4 µM (inactive) |  | 54.6 µM (inactive) | > 100 µM (inactive)
18 | Clc1ccccc1C1SCc2nc3ccccc3n21 (stereo unspecified) | 33.2 µM (inactive) |  | < 0.01 µM (active) |  | 26.4 µM (inactive) |  |  | 17.1 µM (inactive) | 30.3 µM (inactive)
19 | CC(C)=CC(=O)C1c2cccc(O)c2C(=O)c2c(O)cc(C)cc21 (stereo unspecified) | 2.87 µM (inactive) | 1.79 µM (inactive) | 2.15 µM (inactive) | 4.86 µM (inactive) | 2.04 µM (inactive) | 3.48 µM (inactive) |  | 2.86 µM (inactive) | 1.54 µM (inactive)
20 | O=C1c2ccccc2N2Oc3ccccc3C12c1ccccc1 (stereo unspecified) | > 10 µM (inactive) | > 100 µM (inactive) | > 100 µM (inactive) | > 100 µM (inactive) | > 100 µM (inactive) | > 100 µM (inactive) |  | > 100 µM (inactive) | 
21 | CCCCCCC(C)OC(=O)/C=C(\CC(=O)OC(C)CCCCCC)C(=O)OC(C)CCCCCC (stereo unspecified) | > 100 µM (inactive) | > 100 µM (inactive) |  | > 100 µM (inactive) | > 100 µM (inactive) | > 100 µM (inactive) |  | > 100 µM (inactive) | 
22 | O=C(CC(=O)C(F)(F)F)c1csc2ccccc12 |  | 31 µM (inactive) |  | 39.3 µM (inactive) | 21.7 µM (inactive) | 25 µM (inactive) |  | 37.4 µM (inactive) | 
23 | Cc1cc(C(=C2C=CC(=N)C=C2)c2ccc(N)cc2)ccc1N [FUCHSIN, BASIC] | 3.45 µM (inactive) | 1.31 µM (inactive) |  | 3.77 µM (inactive) | 1.03 µM (active) |  |  | 2.76 µM (inactive) | 2.77 µM (inactive)
24 | CSCC1CC(c2ccc(Cl)cc2)=NO1 (stereo unspecified) | > 100 µM (inactive) | > 100 µM (inactive) | > 100 µM (inactive) | > 100 µM (inactive) | > 100 µM (inactive) | > 100 µM (inactive) | > 100 µM (inactive) | > 100 µM (inactive) | 
25 | COc1ccc(NC(=O)c2cc(OC)cc(OC)c2)cc1 | 17.1 µM (inactive) | 7.29 µM (inactive) | > 46.7 µM (inactive) | 4.81 µM (inactive) | 40.5 µM (inactive) | 9.02 µM (inactive) |  | 26 µM (inactive) | > 70.3 µM (inactive)
26 | C=C(COC(C)=O)CC(/C=C(\C)CCC=C(C)C)OC(C)=O (stereo unspecified) | > 100 µM (inactive) | > 100 µM (inactive) |  | > 100 µM (inactive) | > 100 µM (inactive) | > 100 µM (inactive) |  | > 100 µM (inactive) | 47.6 µM (inactive)
